Source: patent US8178690B2, “Compounds and methods for inhibiting the interaction of BCL proteins with binding partners” (Infinity Pharmaceuticals, Inc., priority 2006, dated 2012)
pKi: −log10 of the molar value.

Tests used:
Bcl-2 = Bcl-2 (Homo sapiens, UniProt P10415); assay: Bcl-2 binding affinity analysis (fluorescence polarization binding assay); conditions: read-out: BcI2 (Ki, Bcl-2 binding affinity)
Text: (§1) Bcl-2 and Bcl-xL binding may be determined using a variety of known methods. One such assay is a sensitive and quantitative in vitro binding assay using fluorescence polarization (FP) described by Wang, J.-L.; Zhang, Z-J.; Choksi, S.; Sjam. S.; Lu, Z.; Croce, C. M.; Alnemri, E. S.; Komgold, R.; Huang, Z. Cell permeable Bcl-2 binding peptides: a chemical approach to apoptosis induction in tumor cells. Cancer Res. 2000, 60, 1498-1502).
(§2) Bcl-2 and Bcl-xL binding affinity analysis data is presented below for various compounds of the invention.

Bcl-xL = Bcl-xL (Homo sapiens, UniProt Q07817); assay: Bcl-xL binding affinity analysis (fluorescence polarization binding assay); conditions: read-out: BcI-XI (Ki, Bcl-xL binding affinity)
Sequence of Bcl-xL (Q07817 whole entry): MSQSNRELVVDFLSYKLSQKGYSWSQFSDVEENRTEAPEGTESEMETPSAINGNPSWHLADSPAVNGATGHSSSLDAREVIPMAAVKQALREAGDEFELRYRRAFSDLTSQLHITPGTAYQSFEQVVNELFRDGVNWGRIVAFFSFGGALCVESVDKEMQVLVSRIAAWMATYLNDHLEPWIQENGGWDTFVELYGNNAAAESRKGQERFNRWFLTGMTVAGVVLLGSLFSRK
Text: as §1, §2

Sequence of Bcl-2 (P10415 whole entry): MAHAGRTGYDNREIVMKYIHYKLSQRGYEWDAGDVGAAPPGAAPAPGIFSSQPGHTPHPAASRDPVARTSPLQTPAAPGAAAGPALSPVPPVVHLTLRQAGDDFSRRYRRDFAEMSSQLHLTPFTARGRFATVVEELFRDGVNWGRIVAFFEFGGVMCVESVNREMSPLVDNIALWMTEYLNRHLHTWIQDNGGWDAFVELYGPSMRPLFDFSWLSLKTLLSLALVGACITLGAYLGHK

Structure (SMILES)	pKi (Bcl-2)	pKi (Bcl-xL)
COc1c(CN2O[C@@H](CO)[C@@H]([C@H](C)O)[C@H]2C(=O)N[C@H]2C[C@H]3C[C@@H]([C@@H]2C)C3(C)C)cccc1-c1cc(C(=O)N[C@H](CN(C)C)[C@H](OC)c2ccccc2)cc(N(C)C)c1 [Compound 152]	> 9.00	> 6.00
COc1c(CN2O[C@@H](CO)[C@@H]([C@H](C)O)[C@H]2C(=O)N[C@H]2C[C@H]3C[C@@H]([C@@H]2C)C3(C)C)cccc1-c1cc(C(=O)N[C@H](CN2CCCC2)[C@H](O)c2ccccc2)cc(N(C)C)c1 [Compound 160]	> 9.00	> 6.00
COc1c(CN2O[C@@H](CO)[C@@H]([C@H](C)O)[C@H]2C(=O)N[C@H]2C[C@H]3C[C@@H]([C@@H]2C)C3(C)C)cccc1-c1cc(C(=O)N[C@@H](CN(C)C)CS(=O)(=O)C(C)(C)C)cc(N(C)C)c1 [Compound 170]	8.30 to 9.00	5.30 to 6.00
COc1c(CN2O[C@@H](CO)[C@@H]([C@H](C)O)[C@H]2C(=O)N[C@H]2C[C@H]3C[C@@H]([C@@H]2C)C3(C)C)cccc1-c1cc2c(c(C(=O)N[C@H](CN(C)C)CC(C)(C)C)c1)OC(C)(C)C2 [Compound 196]	> 9.00	> 6.00
COc1c(CN2O[C@@H](CO)[C@@H]([C@H](C)O)[C@H]2C(=O)N[C@H]2C[C@H]3C[C@@H]([C@@H]2C)C3(C)C)cccc1-c1cc(C(=O)N[C@@H](Cc2cccc(N)c2)CN(C)C)cc(N(C)C)c1 [Compound 206]	> 9.00	> 6.00
COc1c(CN2O[C@@H](CN)[C@@H]([C@H](C)O)[C@H]2C(=O)N[C@H]2C[C@H]3C[C@@H]([C@@H]2C)C3(C)C)cccc1-c1cc(C(=O)N[C@@H]2CCN(C)C2)cc(N(C)C)c1 [Compound 213]	> 9.00	< 5.00
COc1c(CN2O[C@@H](CO)[C@@H]([C@H](C)O)[C@H]2C(=O)N[C@H]2C[C@H]3C[C@@H]([C@@H]2C)C3(C)C)cccc1-c1cc(C(=O)N2[C@H](CN(C)C)CC[C@@H]2c2ccccc2)cc(N(C)C)c1 [Compound 247]	> 9.00	> 6.00
COc1c(CN2O[C@@H](CN)[C@@H]([C@H](C)O)[C@H]2C(=O)N[C@H]2C[C@H]3C[C@@H]([C@@H]2C)C3(C)C)cccc1-c1cc(C(=O)N[C@@H](Cc2ccccn2)CN(C)C)cc(N(C)C)c1 [Compound 252]	> 9.00	5.30 to 6.00
COc1c(CN2O[C@@H](CO)[C@@H]([C@H](C)O)[C@H]2C(=O)N[C@H]2C[C@H]3C[C@@H]([C@@H]2C)C3(C)C)cccc1-c1cc2c(c(C(=O)N[C@H](CN(C)C)CC(C)(C)C)c1)OCC2 [Compound 256]	> 9.00	> 6.00
CCOc1c(CN2O[C@@H](CO)[C@@H]([C@H](C)O)[C@H]2C(=O)N[C@H]2C[C@H]3C[C@@H]([C@@H]2C)C3(C)C)cccc1-c1cc(C(=O)N[C@H](CC(C)C)CN(C)C)cc(N(C)C)c1 [Compound 259]	> 9.00	5.30 to 6.00
COc1c(CN2O[C@@H](CO)[C@@H]([C@H](C)O)[C@H]2C(=O)N[C@H]2C[C@H]3C[C@@H]([C@@H]2C)C3(C)C)cccc1-c1cc(C(=O)N[C@@H](CC(C)C)C(N)=O)cc(N(C)C)c1 [Compound 260]	8.30 to 9.00	> 6.00
COc1c(CN2O[C@@H](CO)[C@@H]([C@H](C)O)[C@H]2C(=O)N[C@H]2C[C@H]3C[C@@H]([C@@H]2C)C3(C)C)cccc1-c1cc(C(=O)N[C@@H](CC(C)C)CN(C)C)cc([N+](=O)[O-])c1 [Compound 263]	> 9.00	> 6.00
COc1c(CN2O[C@@H](CO)[C@@H]([C@H](C)O)[C@H]2C(=O)N[C@H]2C[C@H]3C[C@@H]([C@@H]2C)C3(C)C)cccc1-c1cc(C(=O)N[C@@H](CCc2ccccc2)CN(C)C)cc([N+](=O)[O-])c1 [Compound 265]	> 9.00	> 6.00
CCN(CC)c1cc(C(=O)N[C@@H](CC(C)C)CN(C)C)cc(-c2cccc(CN3O[C@@H](CO)[C@@H]([C@H](C)O)[C@H]3C(=O)N[C@H]3C[C@H]4C[C@@H]([C@@H]3C)C4(C)C)c2OC)c1 [Compound 267]	> 9.00	5.30 to 6.00
COc1c(CN2O[C@@H](CO)[C@@H]([C@H](C)O)[C@H]2C(=O)N[C@H]2C[C@H]3C[C@@H]([C@@H]2C)C3(C)C)cccc1-c1cc(C(=O)N[C@@H](CC(C)C)CN(C)C)cc(N2CCCCC2)c1 [Compound 268]	8.30 to 9.00	5.30 to 6.00
COc1c(CN2O[C@@H](CO)[C@@H]([C@H](C)O)[C@H]2C(=O)N[C@H]2C[C@H]3C[C@@H]([C@@H]2C)C3(C)C)cccc1-c1cc(NCC(C)C)cc(C(=O)N[C@@H](CC(C)C)CN(C)C)c1 [Compound 270]	8.30 to 9.00	5.30 to 6.00
COc1c(-c2cc(C(=O)N[C@@H](Cc3ccccc3)CN(C)C)cc(N(C)C)c2)ccc(Cl)c1CN1O[C@@H](CO)[C@@H]([C@H](C)O)[C@H]1C(=O)N[C@H]1C[C@H]2C[C@@H]([C@@H]1C)C2(C)C [Compound 274]	> 9.00	5.30 to 6.00

Results, then the molecule that gave them:

pKi (Bcl-2)	pKi (Bcl-xL)	Structure (SMILES)
> 9.00	> 6.00	CNC[C@H](Cc1ccccc1)NC(=O)c1cc(-c2cccc(CN3O[C@@H](CO)[C@@H]([C@H](C)O)[C@H]3C(=O)N[C@H]3C[C@H]4C[C@@H]([C@@H]3C)C4(C)C)c2OC)cc(N(C)C)c1 [Compound 165]
8.30 to 9.00	5.30 to 6.00	CCOc1c(CN2O[C@@H](CO)[C@@H]([C@H](C)O)[C@H]2C(=O)N[C@H]2C[C@H]3C[C@@H]([C@@H]2C)C3(C)C)cccc1-c1cc(C(=O)N[C@H](CN(C)C)CS(C)(=O)=O)cc(N(C)C)c1 [Compound 176]
> 9.00	> 6.00	CCOc1c(CN2O[C@@H](CO)[C@@H]([C@H](C)O)[C@H]2C(=O)N[C@H]2C[C@H]3C[C@@H]([C@@H]2C)C3(C)C)cccc1-c1cc(C(=O)N[C@@H](Cc2ccccc2)CN2CCCC2)cc(N(C)C)c1 [Compound 182]
8.30 to 9.00	5.30 to 6.00	COc1c(CN2O[C@@H](CO)[C@@H]([C@H](C)O)[C@H]2C(=O)N[C@H]2C[C@H]3CC([C@@H]2C)C3(C)C)ccc(Cl)c1-c1cc(C(=O)N[C@@H](CC(C)C)CN(C)C)cc(N(C)C)c1 [Compound 183]
8.30 to 9.00	5.30 to 6.00	COc1c(CN2O[C@@H](CO)[C@@H]([C@H](C)O)[C@H]2C(=O)N[C@H]2C[C@H]3C[C@@H]([C@@H]2C)C3(C)C)cccc1-c1cc(C(=O)N2CCN(C)C[C@@H]2Cc2ccccc2)cc(N(C)C)c1 [Compound 193]
> 9.00	> 6.00	COc1c(CN2O[C@@H](CO)[C@@H]([C@H](C)O)[C@H]2C(=O)N[C@H]2C[C@H]3C[C@@H]([C@@H]2C)C3(C)C)cccc1-c1cc2c(c(C(=O)N[C@H](CN(C)C)CC(C)(C)C)c1)OCO2 [Compound 202]
> 9.00	5.30 to 6.00	CCOc1c(CN2O[C@@H](CN)[C@@H]([C@H](C)O)[C@H]2C(=O)N[C@H]2C[C@H]3C[C@@H]([C@@H]2C)C3(C)C)cccc1-c1cc(C(=O)N[C@@H](Cc2ccccc2)CN(C)C)cc(N(C)C)c1 [Compound 218]
> 9.00	> 6.00	C[C@@H]1[C@@H](NC(=O)[C@@H]2[C@H]([C@H](C)O)[C@H](CO)ON2Cc2cccc(-c3cc(C(=O)N[C@@H](Cc4ccccc4)CN(C)C)cc(N(C)C)c3)c2OCCN2CCOCC2)C[C@H]2C[C@@H]1C2(C)C [Compound 230]
> 9.00	5.30 to 6.00	COc1c(CN2O[C@@H](CO)[C@@H]([C@H](C)O)[C@H]2C(=O)N[C@H]2C[C@H]3C[C@@H]([C@@H]2C)C3(C)C)cccc1-c1cc(C(=O)N[C@@H](Cc2ccccc2)CN(C)C)cc(N2CCOCC2)c1 [Compound 240]
> 9.00	> 6.00	COc1c(CN2O[C@@H](CO)[C@@H]([C@H](C)O)[C@H]2C(=O)N[C@H]2C[C@H]3C[C@@H]([C@@H]2C)C3(C)C)cccc1-c1cc(C(=O)N[C@@H](Cc2cccs2)CN(C)C)cc(N(C)C)c1 [Compound 251]
> 9.00	> 6.00	COc1c(CN2O[C@@H](CO)[C@@H]([C@H](C)O)[C@H]2C(=O)N[C@H]2C[C@H]3C[C@@H]([C@@H]2C)C3(C)C)cccc1-c1cc(Cl)cc(C(=O)N[C@@H](Cc2ccccc2)CN(C)C)c1 [Compound 255]
> 9.00	> 6.00	COc1c(CN2O[C@@H](CO)[C@@H]([C@H](C)O)[C@H]2C(=O)N[C@H]2C[C@H]3C[C@@H]([C@@H]2C)C3(C)C)cccc1-c1cc(C(=O)N[C@H](CN(C)C)CC(C)(C)C)c(Br)c(N(C)C)c1 [Compound 257]
8.05 to 8.30	5.30 to 6.00	COc1c(CN2O[C@@H](CO)[C@@H]([C@H](C)O)[C@H]2C(=O)N[C@H]2C[C@H]3C[C@@H]([C@@H]2C)C3(C)C)cccc1-c1cc(NC(C)=O)cc(C(=O)N[C@@H](CC(C)C)CN(C)C)c1 [Compound 262]
> 9.00	> 6.00	COc1c(CN2O[C@@H](CO)[C@@H]([C@H](C)O)[C@H]2C(=O)N[C@H]2C[C@H]3C[C@@H]([C@@H]2C)C3(C)C)cccc1-c1cc(C(=O)N[C@@H](Cc2ccccc2)CN(C)C)cc([N+](=O)[O-])c1 [Compound 264]
> 9.00	> 6.00	CCNc1cc(C(=O)N[C@@H](CC(C)C)CN(C)C)cc(-c2cccc(CN3O[C@@H](CO)[C@@H]([C@H](C)O)[C@H]3C(=O)N[C@H]3C[C@H]4C[C@@H]([C@@H]3C)C4(C)C)c2OC)c1 [Compound 269]
> 9.00	> 6.00	COc1c(CN2O[C@@H](CO)[C@@H]([C@H](C)O)[C@H]2C(=O)N[C@H]2C[C@H]3C[C@@H]([C@@H]2C)C3(C)C)cccc1-c1cc(C(=O)N[C@@H](CC(C)C)CN(C)C)cc(N(C)CC(C)C)c1 [Compound 271]
> 9.00	5.30 to 6.00	COc1c(CN2O[C@@H](CN)[C@@H]([C@H](C)O)[C@H]2C(=O)N[C@H]2C[C@H]3C[C@@H]([C@@H]2C)C3(C)C)cccc1-c1cc(C(=O)N[C@H](CN(C)C)[C@H](O)c2ccccc2)cc(N(C)C)c1 [Compound 272]
